What was measured:
NF-κB-signaling (Ube2V1) = assay: NF-κB dual luciferase reporter assay after T-REX on Halo-Ube2V1; format: cell-based, human; details: T-REX HNEylation of Ube2V1, coexpression of Ube2N
Procedure: (§1) 1.5-1.6×10^5 HEK 293T cells were seeded in each well of a 48-well plate. 24 h later, the cells were transfected with 120 ng of the designated HaloTag fusion gene plasmid and 120 ng of NF-kB-Firefly luciferase: pCMV-Renilla luciferase (40:1) mix, using TransIT-2020 transfection agent. 24 h post-transfection, cells were treated with 25 μM Ht-PreHNE or vehicle (corresponding volume of DMSO alone) for 2.5 h, rinsed three times and irradiated with 365 nm UV light for 10 min. The cells were incubated for a further 8 h. For dual luciferase assay, cells in each well were gently washed with 1×DPBS and lysed in 65 μL of 1× passive lysis buffer containing in final concentrations 25 mM Tris (pH 7.8), 2 mM 1,2-CDTA, 2 mM DTT, 1 mg/mL BSA, 1% Triton X-100, and 10% Glycerol. 20 μL of the lysate was transferred to a white opaque 96-well plate (Corning). Firefly luciferase was read after adding 50 μL Firefly substrate (75 mM HEPES pH 8.0, 4 mM MgSO4, 20 mM DTT, 0.1 mM EDTA, 0.53 mM ATP, 0.27 mM Coenzyme-A, 0.47 mM D-Luciferin Firefly). Subsequently, 50 μL of Stop and Glow substrate (7.5 mM sodium acetate pH 5.0, 400 mM sodium sulfate, 10 mM CDTA, 15 mM sodium pyrophosphate, 0.025 mM APMBT, 5.5 μM Coelenterazine) was added and Renilla luciferase activity was measured.

NF-κB-signaling (Ube2V2) = assay: NF-κB dual luciferase reporter assay after T-REX on Halo-Ube2V2; format: cell-based, human; details: T-REX HNEylation of Ube2V2 in place of Ube2V1
Procedure: as §1

PTEN = target: T1, PTEN (Homo sapiens, UniProt P60484); assay: Immunofluorescence of endogenous PIP3 after PTEN-targeted T-REX; format: cell-based; details: T-REX HNEylation of Halo-PTEN
T1 construct: host or cells: HEK-293
Procedure: (i) Transient transfection using TransIT-2020. Split HEK-293 cells in four 35 mm glass-bottom dishes. For each dish, seeding ˜4×10^5 cells in 2.0 mL total cell culture medium should result in cells that are ˜40-50% confluent after 24 h, which represents optimal cell density. Too low and too high cell density may result in excessive cell death or poor transfection efficiency respectively. Higher cell density is also not optimal for imaging.
(ii) Transfect each plate with 2000 ng of Halo-PTEN plasmid. Transfect with TransIT-2020 following the manufacturer's protocol.
(iv) Treatment of cells with T-REX™ delivery photocaged precursor, photo-uncaging and cell fixing (TIMING: 8 hours). Treat the cells with photocaged precursor as described in Section 2, Step 39A.
(v) After shining light on the sample, incubate the plates at 37° C. for 10 hours. […]
(xviii) Images were analyzed using ImageJ software (NIH). Briefly, the average green fluorescence intensity (intensity of signal due to PIP3) for each cell was determined by drawing a free hand circle around the image. This was repeated for each condition such that 50-100 cells were analyzed each time from multiple different frames. A global average of the green fluorescence intensity was calculated for each condition, then these values were plotted and analyzed using prism. […]

T1 sequence (P60484 whole entry): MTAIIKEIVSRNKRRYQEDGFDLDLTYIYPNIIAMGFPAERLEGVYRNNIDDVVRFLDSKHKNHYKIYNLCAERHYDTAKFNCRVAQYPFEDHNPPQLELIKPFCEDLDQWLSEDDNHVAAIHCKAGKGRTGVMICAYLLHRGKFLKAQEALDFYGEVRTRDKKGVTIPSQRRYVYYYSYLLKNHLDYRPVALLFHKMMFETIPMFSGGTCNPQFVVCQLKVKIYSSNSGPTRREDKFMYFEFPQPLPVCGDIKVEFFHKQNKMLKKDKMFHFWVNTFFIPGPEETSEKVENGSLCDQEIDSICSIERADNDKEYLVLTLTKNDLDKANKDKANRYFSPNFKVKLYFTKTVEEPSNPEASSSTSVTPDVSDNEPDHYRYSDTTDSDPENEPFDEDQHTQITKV

CCCCCC(O)/C=C/C=O (stereo not drawn) [HNE, 4-hydroxynonenal]
upregulation in NF-κB-signaling relative to all controls (NF-κB-signaling (Ube2V1)): 3 fold
NF-κB-pathway activation (NF-κB-signaling (Ube2V2)): did not result in NF-κB-pathway activation
endogenous PIP3 level (PTEN): upregulation of PIP3
